Data published in ChEMBL document CHEMBL1201862, “PubChem BioAssay data set” (2004).
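Method: 48-hour compound exposure of cells in 96-well plates, five concentrations, linear interpolation of endpoints. GI50 is the concentration that inhibits growth by half.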 Activity calls are given as the source filed them. No stated cut-off is given here; in the data, active = GI50 up to about 1.1 µM and inactive = higher.

Experiments:
Test in all cases: DTP human tumour cell line panel, 48 h
[1] = system: EKVX
[2] = system: HT-29
[3] = system: A498
[4] = system: SK-MEL-2
[5] = system: TK-10
[6] = system: U-251
[7] = system: 786-0
[8] = system: SR
[9] = system: HCC 2998
[10] = system: M19-MEL
[11] = system: M14
[12] = system: KM-20L2
[13] = system: A549
[14] = system: CAKI-1
[15] = system: LXFL 529
[16] = system: HOP-92
[17] = system: SW-620
[18] = system: SK-MEL-28
[19] = system: XF498
[20] = system: NCI-H226
[21] = system: SK-MEL-5
[22] = system: DMS-273
[23] = system: UACC-257
[24] = system: OVCAR-5
[25] = system: RXF 393
[26] = system: DMS-114
[27] = system: IGROV-1
[28] = system: UO-31
[29] = system: SF-295
[30] = system: SF-268
[31] = system: K562
[32] = system: HCT-15
[33] = system: HCT-116
[34] = system: SN12C
[35] = system: HOP-62
[36] = system: OVCAR-8
[37] = system: ACHN
[38] = system: NCI-H23
[39] = system: SNB-78
[40] = system: KM12
[41] = system: HL-60
[42] = system: OVCAR-4
[43] = system: CCRF-CEM
[44] = system: RPMI-8226
[45] = system: SK-OV-3
[46] = system: HOP-18
[47] = system: Malme-3M
[48] = system: SF-539
[49] = system: UACC-62
[50] = system: MOLT-4
[51] = system: DLD-1
[52] = system: SNB-75
[53] = system: NCI-H460
[54] = system: SNB-19
[55] = system: OVCAR-3
[56] = system: NCI-H522
[57] = system: RXF 631
[58] = system: COLO 205
[59] = system: LOX IMVI

Measured: GI50

C/N=c1\ss/c(=N\C(=S)N(C)C)n1C
> 100 µM: [32]
inactive: [1] > 100 µM | [2] > 100 µM | [3] > 100 µM | [4] > 100 µM | [5] 41.1 µM | [6] > 100 µM | [7] > 100 µM | [8] > 100 µM | [9] > 100 µM | [10] > 100 µM | [11] > 100 µM | [12] > 100 µM | [13] > 100 µM | [14] > 100 µM | [15] > 100 µM | [16] > 100 µM | [17] > 100 µM | [18] > 100 µM | [19] > 100 µM | [20] 27.5 µM | [21] > 100 µM | [22] > 100 µM | [23] > 100 µM | [24] > 100 µM | [25] > 100 µM | [26] > 100 µM | [27] > 100 µM | [28] > 100 µM | [29] > 100 µM | [30] > 100 µM | [31] > 100 µM | [33] > 100 µM | [34] > 100 µM | [35] > 100 µM | [36] > 100 µM | [37] > 100 µM | [38] > 100 µM | [39] > 100 µM | [40] > 100 µM | [41] > 100 µM | [42] > 100 µM | [43] > 100 µM | [44] > 100 µM | [45] > 100 µM | [46] > 100 µM | [47] > 100 µM | [48] > 100 µM | [49] > 100 µM | [50] > 100 µM | [51] > 100 µM | [52] > 100 µM | [53] > 100 µM | [54] > 100 µM

Cc1ccc(C)c2sc3cc(=O)ccc-3nc12
inactive: [1] 37.2 µM | [2] 44 µM | [4] 53.3 µM | [5] 26.3 µM | [6] 35.7 µM | [55] 43.3 µM | [7] 39.2 µM | [8] 26.4 µM | [9] 44.1 µM | [10] 17.3 µM | [11] 18.2 µM | [12] 73.3 µM | [13] 41.2 µM | [14] 22 µM | [15] 37.7 µM | [16] 28.1 µM | [17] 63.1 µM | [18] 43.4 µM | [56] 7.83 µM | [20] 75.2 µM | [21] 16.5 µM | [22] 39.2 µM | [23] 35.1 µM | [24] 30.8 µM | [26] 30.5 µM | [27] 82 µM | [28] 45.5 µM | [29] 39.1 µM | [57] 92.9 µM | [30] 43.5 µM | [31] 16 µM | [33] 54.3 µM | [34] 57.7 µM | [35] 28.7 µM | [36] 35.2 µM | [37] 30 µM | [38] 29 µM | [39] > 100 µM | [58] 63.8 µM | [40] 33.8 µM | [41] 10.5 µM | [42] 21.1 µM | [43] 14.9 µM | [45] > 100 µM | [46] > 100 µM | [48] 32.2 µM | [49] 17.5 µM | [50] 15 µM | [51] 45.9 µM | [52] 55.5 µM | [53] 34.2 µM | [54] 91.6 µM
29.4 µM: [32]

CCOC(=O)C(Cc1c[nH]c2cc([N+](=O)[O-])ccc12)NS(=O)(=O)c1ccc2ccccc2c1 (configuration not stated)
inactive: [1] 29.1 µM | [2] 17.2 µM | [3] 29.2 µM | [4] 17.4 µM | [5] 26.4 µM | [6] 17.6 µM | [55] 16.7 µM | [7] 26.5 µM | [8] 17.5 µM | [9] 24.2 µM | [10] 17.2 µM | [11] 19 µM | [12] 19 µM | [13] 30.6 µM | [15] 17.5 µM | [16] 19.9 µM | [17] 21.2 µM | [18] 18.2 µM | [56] 16.3 µM | [19] 17.3 µM | [20] 16.7 µM | [22] 17.5 µM | [23] 15.3 µM | [25] 14.7 µM | [26] 19.7 µM | [27] 21.4 µM | [28] 22.8 µM | [29] 17.3 µM | [30] 20.2 µM | [31] 18.1 µM | [33] 17.2 µM | [34] 18.7 µM | [35] 15.7 µM | [36] 21.4 µM | [37] 23.6 µM | [38] 21.9 µM | [39] 20.7 µM | [58] 18 µM | [40] 17.1 µM | [41] 22.8 µM | [42] 10.9 µM | [43] 20.1 µM | [44] 22 µM | [45] 23.4 µM | [46] 29.5 µM | [47] > 10 µM | [59] 17.5 µM | [48] 17.5 µM | [49] 16.7 µM | [50] 26 µM | [51] 23.7 µM | [52] 17.1 µM | [53] 18.1 µM | [54] 37.9 µM
18.7 µM: [32]
